Data: patent US12492177B2, “RAR-α compounds for inflammatory disease and male contraception” (Orphagen Pharmaceuticals, Inc., priority 2019, dated 2025)

Columns and labels:
Format in all cases: cell-based
[1] = target: T1, RARβ (Homo sapiens, UniProt P10826); experiment: RARβ transcriptional assay, agonist activity; details: agonist mode
T1 sequence (P10826 1-455): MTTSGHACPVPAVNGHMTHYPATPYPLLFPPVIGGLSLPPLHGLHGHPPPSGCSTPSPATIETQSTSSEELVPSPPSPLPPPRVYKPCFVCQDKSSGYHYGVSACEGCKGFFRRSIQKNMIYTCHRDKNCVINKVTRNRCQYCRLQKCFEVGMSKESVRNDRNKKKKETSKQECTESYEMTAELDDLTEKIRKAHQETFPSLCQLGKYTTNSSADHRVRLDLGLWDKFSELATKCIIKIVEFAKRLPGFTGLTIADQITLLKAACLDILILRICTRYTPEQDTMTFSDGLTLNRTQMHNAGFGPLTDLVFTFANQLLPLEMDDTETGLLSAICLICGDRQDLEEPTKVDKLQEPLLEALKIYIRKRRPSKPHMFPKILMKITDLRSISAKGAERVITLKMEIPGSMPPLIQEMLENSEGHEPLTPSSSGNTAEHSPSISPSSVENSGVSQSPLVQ
Description: (§1) Transcriptional assays for RARα, RARβ and RARγ, which measure the antagonist or agonist like activity of the compounds are described in WO 2017/201200 A1 (Thacher, Crowe, Tao and Raheja, Therapeutic compositions containing RAR-alpha antagonists) published on Nov. 23, 2017, which is also incorporated herein by reference. The results obtained in these assays are expressed as EC50 values when measuring agonist activity and IC50 values when measuring antagonist activity in the presence of 0.5 nM TTNPB, a retinoid agonist.

[2] = target: T2, RARγ (Homo sapiens, UniProt P13631); experiment: RARγ transcriptional assay, antagonist activity; details: in the presence of 0.5 nM TTNPB
T2 sequence (P13631 1-454): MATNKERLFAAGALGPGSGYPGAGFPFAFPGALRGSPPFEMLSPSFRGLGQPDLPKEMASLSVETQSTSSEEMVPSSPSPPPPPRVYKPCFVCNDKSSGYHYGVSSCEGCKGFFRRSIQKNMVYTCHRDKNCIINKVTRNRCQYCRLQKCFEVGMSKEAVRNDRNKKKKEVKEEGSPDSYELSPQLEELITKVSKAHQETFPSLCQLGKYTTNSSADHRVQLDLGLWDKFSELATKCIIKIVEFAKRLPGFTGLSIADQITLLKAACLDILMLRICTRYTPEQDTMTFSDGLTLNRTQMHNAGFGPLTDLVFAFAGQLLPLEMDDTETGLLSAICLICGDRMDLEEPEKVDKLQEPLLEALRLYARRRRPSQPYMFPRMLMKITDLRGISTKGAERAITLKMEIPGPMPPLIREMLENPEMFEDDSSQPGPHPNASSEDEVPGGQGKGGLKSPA
Description: as §1

[3] = target: T3, RARα (Homo sapiens, UniProt P10276); experiment: RARα transcriptional assay, agonist activity; details: agonist mode
T3 sequence (P10276 1-462): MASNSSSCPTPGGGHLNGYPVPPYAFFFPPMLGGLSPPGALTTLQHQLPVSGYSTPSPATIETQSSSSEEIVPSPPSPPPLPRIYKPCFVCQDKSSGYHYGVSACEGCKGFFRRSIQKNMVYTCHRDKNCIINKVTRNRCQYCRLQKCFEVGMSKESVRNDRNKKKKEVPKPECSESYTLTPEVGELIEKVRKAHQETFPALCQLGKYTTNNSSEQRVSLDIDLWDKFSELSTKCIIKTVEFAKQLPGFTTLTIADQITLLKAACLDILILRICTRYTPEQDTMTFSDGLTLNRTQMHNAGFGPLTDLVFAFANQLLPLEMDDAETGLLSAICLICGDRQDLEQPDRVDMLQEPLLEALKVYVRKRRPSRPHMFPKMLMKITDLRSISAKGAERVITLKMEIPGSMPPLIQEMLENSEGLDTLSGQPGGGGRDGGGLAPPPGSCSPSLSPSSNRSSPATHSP
Description: as §1

[4] = target: T3, RARα; experiment: RARα transcriptional assay, antagonist activity; details: in the presence of 0.5 nM TTNPB
Description: as §1

[5] = target: T2, RARγ; experiment: RARγ transcriptional assay, agonist activity; details: agonist mode
Description: as §1

[6] = target: T1, RARβ; experiment: RARβ transcriptional assay, antagonist activity; details: in the presence of 0.5 nM TTNPB
Description: as §1

CC[C@H]1CC[C@H](C2=CC(C)(C)Oc3c(Br)cc(C(=O)Nc4ccc(C(=O)O)c(F)c4)cc32)CC1 [Compound 39]
EC50 [1]: > 1 µM | IC50 [2]: 0.101 to 1 µM | EC50 [3]: > 1 µM | Antagonist Activity RARα Efficacy [4]: † (†, RARα antagonist efficacy >85%) | IC50 [4]: < 0.001 µM | EC50 [5]: > 1 µM | IC50 [6]: 0.101 to 1 µM

CC1CCC(C2=CC(C)(C)Oc3c(Br)cc(C(=O)Nc4ccc(C(=O)O)c(F)c4)cc32)CC1 (stereo not drawn) [Compound 35]
EC50 [1]: > 1 µM | IC50 [2]: > 1 µM | EC50 [3]: > 1 µM | Antagonist Activity RARα Efficacy [4]: † (†, RARα antagonist efficacy >85%) | IC50 [4]: < 0.001 µM | EC50 [5]: > 1 µM | IC50 [6]: 0.011 to 0.1 µM

CC#CC1=CC(C)(C)Oc2c(Br)cc(C(=O)Nc3ccc(C(=O)O)c(F)c3)cc21 [Compound 37]
EC50 [1]: 0.101 to 1 µM | IC50 [2]: > 1 µM | EC50 [3]: 0.011 to 0.1 µM | IC50 [4]: 0.001 to 0.01 µM | EC50 [5]: > 1 µM | IC50 [6]: > 1 µM

CC1(C)C=C(C2CCOCC2)c2cc(C(=O)Nc3ccc(C(=O)O)c(F)c3)cc(Br)c2O1 [Compound 34]
EC50 [1]: 0.101 to 1 µM | IC50 [2]: > 1 µM | EC50 [3]: 0.101 to 1 µM | Antagonist Activity RARα Efficacy [4]: † (†, RARα antagonist efficacy >85%) | IC50 [4]: 0.011 to 0.1 µM | EC50 [5]: 0.101 to 1 µM | IC50 [6]: > 1 µM

CC[C@H]1CC[C@@H](C2=CC(C)(C)Oc3c(Br)cc(C(=O)Nc4ccc(C(=O)O)c(F)c4)cc32)CC1 [Compound 40]
EC50 [1]: > 1 µM | IC50 [2]: > 1 µM | EC50 [3]: > 1 µM | Antagonist Activity RARα Efficacy [4]: † (†, RARα antagonist efficacy >85%) | IC50 [4]: < 0.001 µM | EC50 [5]: > 1 µM | IC50 [6]: > 1 µM

CN1CCC(C2=CC(C)(C)Oc3c(Br)cc(C(=O)Nc4ccc(C(=O)O)c(F)c4)cc32)CC1 [Compound 32]
EC50 [1]: > 1 µM | IC50 [2]: > 1 µM | EC50 [3]: > 1 µM | IC50 [4]: > 1 µM | EC50 [5]: > 1 µM | IC50 [6]: > 1 µM

CC1(C)C=C([C@H]2CC[C@@H](C)CC2)c2cc(C(=O)Nc3ccc(C(=O)O)c(F)c3)cc(Br)c2O1 [Compound 36]
EC50 [1]: > 1 µM | IC50 [2]: > 1 µM | EC50 [3]: > 1 µM | Antagonist Activity RARα Efficacy [4]: † (†, RARα antagonist efficacy >85%) | IC50 [4]: < 0.001 µM | EC50 [5]: > 1 µM | IC50 [6]: > 1 µM

CC(C)C1=CC(C)(C)Oc2c(Br)cc(C(=O)Nc3ccc(C(=O)O)c(F)c3)cc21 [Compound 33]
EC50 [1]: 0.011 to 0.1 µM | IC50 [2]: > 1 µM | EC50 [3]: < 0.001 µM | IC50 [4]: > 1 µM | EC50 [5]: 0.101 to 1 µM | IC50 [6]: > 1 µM

CC1(C)CCC(C2=CC(C)(C)Oc3c(Br)cc(C(=O)Nc4ccc(C(=O)O)c(F)c4)cc32)CC1 [Compound 38]
EC50 [1]: > 1 µM | IC50 [2]: 0.011 to 0.1 µM | EC50 [3]: > 1 µM | Antagonist Activity RARα Efficacy [4]: † (†, RARα antagonist efficacy >85%) | IC50 [4]: < 0.001 µM | EC50 [5]: > 1 µM | IC50 [6]: 0.011 to 0.1 µM
